The source made the active and inactive calls. The calls are words filed in the database; no cut-off is given here.
Experiments:
Candida albicans [1] = experiment: Antifungal activity against Candida albicans ATCC 90028 at 100 ug/disk by disk diffusion method; assay type: functional, organism-based
Cryptococcus neoformans [2] = experiment: Antifungal activity against Cryptococcus neoformans ATCC 90112 at 100 ug/disk by disk diffusion method; assay type: functional, organism-based
Micrococcus luteus [3] = experiment: Antibacterial activity against Micrococcus luteus Presque Isle 456 at 100 ug/disk by disk diffusion method; assay type: functional, organism-based
Staphylococcus aureus [4] = experiment: Antibacterial activity against Staphylococcus aureus ATCC 29213 at 100 ug/disk by disk diffusion method; assay type: functional, organism-based
Enterococcus faecalis = experiment: Antibacterial activity against Enterococcus faecalis ATCC 29212 at 100 ug/disk by disk diffusion method; assay type: functional, organism-based
Bacillus subtilis [5] = experiment: Antibacterial activity against Bacillus subtilis Presque Isle 620 at 100 ug/disk by disk diffusion method; assay type: functional, organism-based
Streptococcus pneumoniae [6] = experiment: Antibacterial activity against Streptococcus pneumoniae ATCC 6303 at 100 ug/disk by disk diffusion method; assay type: functional, organism-based
[7] = system: Stenotrophomonas maltophilia; experiment: Antibacterial activity against Stenotrophomonas maltophilia ATCC 13637 at 100 ug/disk by disk diffusion method; assay type: functional, organism-based
Escherichia coli = experiment: Antibacterial activity against Escherichia coli ATCC 25922 at 100 ug/disk by disk diffusion method; assay type: functional, organism-based
Enterobacter cloacae = experiment: Antibacterial activity against Enterobacter cloacae ATCC 13047 at 100 ug/disk by disk diffusion method; assay type: functional, organism-based
Neisseria gonorrhoeae = experiment: Antibacterial activity against Neisseria gonorrhoeae ATCC 49226 by disk diffusion method; assay type: functional
Cryptococcus neoformans [8] = experiment: Antifungal activity against Cryptococcus neoformans ATCC 90112 by disk diffusion method; assay type: functional
Micrococcus luteus [9] = experiment: Antibacterial activity against Micrococcus luteus Presque Isle 456 by disk diffusion method; assay type: functional
Staphylococcus aureus [10] = experiment: Antibacterial activity against Staphylococcus aureus ATCC 29213 by disk diffusion method; assay type: functional
Bacillus subtilis [11] = experiment: Antibacterial activity against Bacillus subtilis Presque Isle 620 by disk diffusion method; assay type: functional
Streptococcus pneumoniae [12] = experiment: Antibacterial activity against Streptococcus pneumoniae ATCC 6303 by disk diffusion method; assay type: functional
Streptococcus pneumoniae [13] = experiment: Antibacterial activity against penicillin-resistant Streptococcus pneumoniae isolate by disk diffusion method; assay type: functional
Streptococcus pneumoniae [14] = experiment: Antibacterial activity against invasive Streptococcus pneumoniae isolate by disk diffusion method; assay type: functional
[15] = system: Streptococcus sp. 'group A'; experiment: Antibacterial activity against group A Streptococcus isolate at 100 ug/disk by disk diffusion method; assay type: functional, organism-based
Candida albicans [16] = experiment: Antifungal activity against Candida albicans ATCC 90028 by disk diffusion method; assay type: functional

With CC1=C(N)C(=O)c2c(ccnc2C)C1=O [CRIBROSTATIN 1] the Activity (Candida albicans [1]) was “inactive”, the Activity (Cryptococcus neoformans [2]) was “inactive” and the Activity (Micrococcus luteus [3]) was “inactive”. The Activity (Staphylococcus aureus [4]) was “inactive”, the Activity (Enterococcus faecalis) was “inactive” and the Activity (Bacillus subtilis [5]) was “inactive”. For the same molecule, the Activity (Streptococcus pneumoniae [6]) was “inactive”, the Activity [7] was “inactive” and the Activity (Escherichia coli) was “inactive”. For the same molecule, the Activity (Enterobacter cloacae) was “inactive” and the MIC (Neisseria gonorrhoeae) was 0.39 µg/disc.
CCOC1=C(C)C(=O)c2cc(=O)n(C)cc2C1=O [CRIBROSTATIN 2] was tested, and the MIC (Cryptococcus neoformans [8]) was 12.5 µg/disc, the MIC (Micrococcus luteus [9]) was 50 µg/disc and the MIC (Staphylococcus aureus [10]) was 12.5 µg/disc. For the same molecule, the Activity (Enterococcus faecalis) was “inactive”, the MIC (Bacillus subtilis [11]) was 25 µg/disc and the MIC (Streptococcus pneumoniae [12]) was 12.5 µg/disc. The MIC (Streptococcus pneumoniae [13]) was 25 µg/disc, the MIC (Streptococcus pneumoniae [14]) was 50 µg/disc and the Activity [15] was “inactive”. For the same molecule, the Activity [7] was “inactive”, the Activity (Escherichia coli) was “inactive” and the Activity (Enterobacter cloacae) was “inactive”. For the same molecule, the MIC (Neisseria gonorrhoeae) was 0.39 µg/disc and the MIC (Candida albicans [16]) was 3.12 µg/disc.

From ChEMBL document CHEMBL1142628, “Antineoplastic agents 430. Isolation and structure of cribrostatins 3, 4, and 5 from the republic of maldives cribrochalina species” (2000)
